Test results reported in PMC10947113, “A Bivalent Activatable Fluorescent Probe for Screening and Intravital Imaging of Chemotherapy‐Induced Cancer Cell Death” (Angewandte Chemie (Weinheim an Der Bergstrasse, Germany), 2021).

Test system: MMTV-PyMT mammary gland tumours
Test: Intravital imaging and ex vivo quantification of cisplatin-induced apoptosis
Assay type: in vivo, mouse
From the text: Optical intravital imaging is increasingly used for the preclinical evaluation of anticancer drugs in vivo. Although imaging modalities like computed tomography, positron emission tomography and magnetic resonance imaging can help to visualise whole intact organs in a non‐invasive manner,[26] they lack the spatiotemporal resolution needed to study dynamic interactions between individual tumour and stromal cells. This feature is critical to understand the mechanism of action of anticancer drugs and how they can affect interactions between cancer cells and immune cells in the tumour microenvironment.[27] Intravital imaging heavily relies on the acquisition of fluorescence signals using multiphoton microscopy, which provides cellular resolution with deep tissue penetration (≈500 μm) and minimal photodamage.[28] […] First, we analysed the chemical stability of Apotracker Red for in vivo studies by incubating the probe in mouse serum. […] When primary tumours measured around 0.5–1 cm in diameter, we administered cisplatin intraperitoneally (10 mg kg^−1). […]
were centrifuged (300 g, 5 min, r.t.), washed once with PBS before addition of 0.05% Trypsin, 0.02% ethylenediaminetetraacetic acid (EDTA) in Hank’s balanced salt solution (HBSS) and incubation at 37°C for 5 min. […] Histograms and mean fluorescence intensities of apoptotic cells were measured on a 5L LSR flow cytometer under the following […]

SMILES: N.N.[Cl][Pt][Cl] [cisplatin]
- Apotracker Red fluorescence in tumours of cisplatin-treated mice (cancer cell death) (MMTV-PyMT;ACTB-ECFP mice, cisplatin 10 mg kg^-1 intraperitoneally, Apotracker Red 650 ng i.v. after 72 h, two-photon intravital imaging): strong red fluorescent signals indicating cancer cell death induced by the drug
- relative percentages of apoptotic cells in tumours, ex vivo quantification (cisplatin 10 μg g^-1 i.p., day 3, at least 5 tumour areas per mouse, mean±SEM, one-way ANOVA p<0.05): significant differences
